Reference: article PMC8175350, “Drug repurposing screens identify chemical entities for the development of COVID-19 interventions” (Nature Communications, 2021)
Counter-ions that a name gives are not always drawn. Like-named read-outs stand apart in the source and are kept apart here.

How the values were obtained:
SARS-CoV-2 [1] = experiment: microbe, parasite or virus in culture; assay type: cell-based; conditions: for Emax: Severe acute respiratory syndrome coronavirus 2, HeLa-ACE2, 10 h, read-out: HeLa-ACE2 TOA CoV-2 Sinf Average; for EC50: read-out: HeLa-ACE2 TOA CoV-2 EC50 GeoMean
[2] = HEK293T 72 h CellTiter-Glo cytotoxicity; conditions: human, HEK293T cells
HEK293T [3] = experiment: HEK293T 72 h CellTiter-Glo cytotoxicity; conditions: 72 h
SARS-CoV-2 [4] = experiment: microbe, parasite or virus in culture; assay type: cell-based
HeLa-ACE2 cells [5] = experiment: cells; conditions: Homo sapiens; for Emax: HeLa-ACE2, 24 h, read-out: HeLa-ACE2 cell count Sinf Average; for EC50: HeLa-ACE2, read-out: HeLa-ACE2 cell count EC50 GeoMean
[6] = Uninfected Calu-3 48 h Cell-Titer Glo cytotoxicity counter screen; conditions: human, uninfected Calu-3 cells
Calu-3 cells [7] = experiment: as above
[8] = HepG2 72 h CellTiter-Glo cytotoxicity; conditions: human, HepG2 cells
HepG2 [9] = experiment: HepG2 72 h CellTiter-Glo cytotoxicity; conditions: 72 h
HeLa-ACE2 cells [10] = experiment: Uninfected HeLa-ACE2 24 h live/dead cytotoxicity counter screen; assay type: cell-based, human
[11] = as above; assay type: cell-based, human; conditions: human, uninfected HeLa-ACE2 cells
Calu-3 cells [12] = experiment: cells; conditions: Homo sapiens; for Emax: Calu-3, 48 h, read-out: Calu-3 cell count Sinf Average; for EC50: Calu-3, read-out: Calu-3 cell count EC50 GeoMean
SARS-CoV-2 [13] = experiment: microbe, parasite or virus in culture; assay type: cell-based; conditions: for Emax: Severe acute respiratory syndrome coronavirus 2, Calu-3, 48 h, read-out: Calu-3 CoV-2 Sinf Average
HeLa-ACE2 cells [14] = experiment: Total cell count in the HeLa-ACE2 TOA assay; assay type: cell-based; conditions: Homo sapiens; for Emax: HeLa-ACE2, 10 h, curve plateau at infinite concentration, read-out: HeLa-ACE2 TOA cell count Sinf Average; for EC50: HeLa-ACE2, read-out: HeLa-ACE2 TOA cell count EC50 GeoMean
Text: Supplement 41467_2021_23328_MOESM3_ESM.xlsx, sheet "Table S1" | column: HeLa-ACE2 TOA cell count

HEK293T [15] = conditions: human
Calu-3 cells [16] = conditions: for Calu-3 uninfected cytotoxicity Sinf Average: human
HepG2 [17] = conditions: human
in vitro = conditions: human
SARS-CoV-2 [18] = assay type: cell-based; conditions: combination with remdesivir, synergy score δ
[19] = curve plateau at infinite concentration
[20] = Severe acute respiratory syndrome coronavirus 2, HeLa-ACE2, detail column
[21] = Severe acute respiratory syndrome coronavirus 2, HeLa-ACE2, 24 h, curve plateau at infinite concentration; read-out: HeLa-ACE2 CoV-2 Sinf Average
[22] = Severe acute respiratory syndrome coronavirus 2, HeLa-ACE2; read-out: HeLa-ACE2 CoV-2 EC50 GeoMean
[23] = read-out: HeLa-ACE2 uninfected cytotoxicity CC50 GeoMean
[24] = Severe acute respiratory syndrome coronavirus 2, Calu-3, read-out: Calu-3 CoV-2 EC50 GeoMean
[25] = Severe acute respiratory syndrome coronavirus 2, HeLa-ACE2
[26] = Severe acute respiratory syndrome coronavirus 2, HeLa-ACE2, detail column; read-out: HeLa-ACE2 CoV-2 EC50 GeoMean
[27] = Calu-3 uninfected cytotoxicity CC50 GeoMean
[28] = Severe acute respiratory syndrome coronavirus 2, Calu-3, detail column, read-out: Calu-3 CoV-2 EC50 GeoMean

SMILES | Emax (SARS-CoV-2 [1]; [19]) | CC50 at 72 h [2] | HEK293T 72-hour cytotoxicty Sinf Average (HEK293T [3]) | Emax (SARS-CoV-2 [4]; [21]) | Emax (HeLa-ACE2 cells [5]) | EC50 (HeLa-ACE2 cells [5]) | Calu-3 uninfected cytotoxicity Sinf Average (Calu-3 cells [7]; [19]) | CC50 at 72 h [8] | HepG2 72-hour cytotoxicity Sinf Average (HepG2 [9]) | HeLa-ACE2 uninfected cytotoxicity Sinf Average (HeLa-ACE2 cells [10]; [19]) | CC50 at 24 h [11, 23] | Emax (Calu-3 cells [12]) | EC50 (Calu-3 cells [12]) | Emax (SARS-CoV-2 [13]; [19]) | Emax (HeLa-ACE2 cells [14]) | EC50 (HeLa-ACE2 cells [14]) | EC50 (SARS-CoV-2 [1]; [25]) | EC50 (SARS-CoV-2 [13]; [28]) | further results
CNC(=O)c1cc(Oc2ccc(NC(=O)Nc3ccc(Cl)c(C(F)(F)F)c3)cc2)ccn1 [Sorafenib] | 99% | 3.34 µM | -107% | 100% | 100% | > 8310 nM | -88% | 7.15 µM | -101% | -99% | > 8.65 µM | 100% | > 9.36 µM | 100% | 100% | > 9.61 µM | – | – | EC50 (SARS-CoV-2 [1]; [20]): 3.51 µM; EC50 (SARS-CoV-2 [4]; [22]): > 5680 nM; CC50 at 48 h [6]: 5.3 µM; EC50 (SARS-CoV-2 [13]; [24]): > 5.2 µM
COc1ccc2c(c1)[C@]1(C[C@H]1c1ccc3c(/C=C/c4ccc(CN5C[C@@H](C)O[C@@H](C)C5)cc4)n[nH]c3c1)C(=O)N2 [CFI-400945] | 100% | – | – | 100% | 53% | > 117 nM | – | – | – | -100% | 7.18 µM | 100% | 4.75 µM | 100% | 100% | > 9.59 µM | 4.57 µM | 3.36 µM | EC50 (SARS-CoV-2 [4]; [26]): > 7000 nM; HEK293T 72-hour cytotoxicty Sinf Average (HEK293T [15]; 72 h): -95%; uninfected Calu-3 CC50 (Calu-3 cells [16]): > 19.756 ×÷ 1.816 (n=3) μM; Calu-3 uninfected cytotoxicity Sinf Average (Calu-3 cells [16]; 48 h): -98%; HepG2 72-hour cytotoxicity Sinf Average (HepG2 [17]; 72 h): -100%; CC50 at 48 h (in vitro; [27]): > 19.8 µM
Nc1ncnc2c1nc(Cl)n2[C@@H]1O[C@H](CO)[C@@H](O)[C@H]1O [8-Chloroadenosine] | 98% | – | – | 98% | – | > 9590 nM | – | – | – | -87% | > 11.9 µM | 99% | > 9.98 µM | 96% | 100% | > 9.59 µM | 1.07 µM | 4.94 µM | EC50 (SARS-CoV-2 [4]; Severe acute respiratory syndrome coronavirus 2, HeLa-ACE2, reconfirmed hits; read-out: HeLa-ACE2 SARS-CoV-2 EC50): 927 nM; HEK293T 72-hour cytotoxicty Sinf Average (HEK293T [15]; 72 h): -98%; uninfected Calu-3 CC50 (Calu-3 cells [16]): > 27.747 ×÷ 1.135 (n=3) μM; Calu-3 uninfected cytotoxicity Sinf Average (Calu-3 cells [16]; 48 h): -92%; HepG2 72-hour cytotoxicity Sinf Average (HepG2 [17]; 72 h): -69%; CC50 at 24 h ([11]; reconfirmed hits, read-out: HeLa-ACE2 Uninf. cells CC50): > 11.9 µM; CC50 at 48 h (in vitro; Calu-3 Uninf. cells CC50 (µM)): > 27.8 µM; CC50 at 48 h (in vitro; [27]): > 27.7 µM; EC50 (SARS-CoV-2 [13]; Severe acute respiratory syndrome coronavirus 2, Calu-3, reconfirmed hits, read-out: Calu-3 SARS-CoV-2 EC50): 4.94 µM
C=CC(=O)Nc1cc(Nc2nccc(-c3cn(C)c4ccccc34)n2)c(OC)cc1N(C)CCN(C)C [AZD-9291/Osimertinib] | 100% | – | -103% | 100% | 98% | > 4230 nM | -89% | – | -107% | -100% | > 18.1 µM | -100% | > 9.98 µM | 100% | -100% | > 9.6 µM | > 7.85 µM | > 1.59 µM | EC50 (SARS-CoV-2 [4]; [26]): 962 nM; CC50 (in vitro; [27]): 1690 nM; HeLa-ACE2 synergy score with remdesivi [δ] (SARS-CoV-2 [18]): -0.722
CCCCc1oc2ccccc2c1C(=O)c1cc(I)c(OCCN(CC)CC)c(I)c1 [Amiodarone] | – | 10.9 µM | -100% | – | 100% | – | – | – | -100% | – | – | 100% | – | – | – | – | – | – | Emax (SARS-CoV-2 [1]): 100%; Emax (SARS-CoV-2 [4]; Severe acute respiratory syndrome coronavirus 2, HeLa-ACE2, 24 h, read-out: HeLa-ACE2 CoV-2 Sinf Average): 96%; HeLa-ACE2 uninfected cytotoxicity Sinf Average (HeLa-ACE2 cells [10]; human, uninfected HeLa-ACE2 cells, 24 h): -101%; Emax (SARS-CoV-2 [13]): 100%
C[C@H]1O[C@@H](O[C@H]2[C@@H](O)C[C@H](O[C@H]3[C@@H](O)C[C@H](O[C@H]4CC[C@@]5(C)[C@H](CC[C@@H]6[C@@H]5C[C@@H](O)[C@]5(C)[C@@H](C7=CC(=O)OC7)CC[C@]65O)C4)O[C@@H]3C)O[C@@H]2C)C[C@H](O)[C@@H]1O [Digoxin] | 89% | – | – | 100% | 101% | 325 nM | – | – | – | -98% | 0.12 µM | -100% | > 9.95 µM | 83% | – | > 9.59 µM | – | – | EC50 (SARS-CoV-2 [1]; [20]): 0.792 µM; EC50 (SARS-CoV-2 [4]; [22]): 166 nM; HEK293T 72-hour cytotoxicty Sinf Average (HEK293T [15]): -101%; Calu-3 uninfected cytotoxicity Sinf Average (Calu-3 cells [16]): -38%; HepG2 72-hour cytotoxicity Sinf Average (HepG2 [17]): -102%; CC50 (in vitro; [27]): > 5040 nM; EC50 (SARS-CoV-2 [13]; [24]): 0.169 µM
Cc1ccc(NC(=O)c2ccc(CN3CCN(C)CC3)cc2)cc1Nc1nccc(-c2cccnc2)n1 [Imatinib mesylate] | – | 15.2 µM | -100% | – | – | – | – | 12.9 µM | -100% | – | – | 100% | – | – | – | – | – | – | Emax (SARS-CoV-2 [4]; Severe acute respiratory syndrome coronavirus 2, HeLa-ACE2, 24 h; read-out: HeLa-ACE2 CoV-2 Sinf Average): 100%; CC50 at 48 h [6, 27]: > 29.9 µM; Calu-3 uninfected cytotoxicity Sinf Average (Calu-3 cells [7]; human, uninfected Calu-3 cells, 48 h): -100%; Emax (SARS-CoV-2 [13]): 100%
CN1CC2c3ccccc3Oc3ccc(Cl)cc3C2C1 (centres unmarked) [Asenapine maleate] | 100% | 23.3 µM | -100% | 97% | – | – | -100% | 19.9 µM | -100% | -100% | – | – | – | 100% | – | – | – | – | CC50 at 48 h [6]: > 29.9 µM; CC50 at 24 h ([11]; detail block, read-out: HeLa-ACE2 uninfected cytotoxicity CC50 GeoMean): > 35.6 µM
